Reference: patent US20250154219A1, “PEPTIDE ANALOGS” (Adepthera LLC, priority 2017, published 2025)

Tests used:
Assay type in all cases: cell-based
CLR/RAMP2 receptor [1] = biological target: T1, CLR/RAMP2 receptor (Homo sapiens, UniProt O60895+Q16602); test: CLR/RAMP2 arrestin receptor-activation assay (agonist mode); conditions: for CLR/RAMP2 Max Activity % of positive control: agonist mode, positive control ADM; for EC50: CHO-K1 cells stably expressing CLR/RAMP2, arrestin assay;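 on all read-outs here: agonist dose-response in recombinant cell lines stably expressing each receptor complex, duplicate wells over 10 threefold dilutions from a top concentration of 1.0 µM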
Experimental: (§1) Using a receptor activation assay, the dose-dependent stimulatory response of peptide agonists on a CLR/RAMP1 receptor, a CLR/RAMP2, or a CLR/RAMP3 receptor complex was determined. A cell line carrying the recombinant CLR/RAMP1, CLR/RAMP2, or a CLR/RAMP3 receptor was employed in the assay. Peptide agonist activities were tested, in duplicate, at 10 different concentrations, starting with 1.0 μM and serially diluted 3-fold, in DMSO. […] The CLR/RAMP1 CAMP, CLR/RAMP2 arrestin, and CLR/RAMP3 CAMP assays (DiscoveRx, Fremont, Calif.) were used.
(§2) The pharmacology of superagonistic activity of synthetic analogs was studied in cells that stably express CLR/RAMP1 (1321N1 cells), CLR/RAMP2 (CHO-K1 cells), or CLR/RAMP3 (CHO-K1 cells) receptors.
For the Arrestin assays, PathHunter cell lines (Discoverx Inc.) were expanded from freezer stocks, and seeded in a total volume of 20 μL into white walled, 384-well microplates and incubated at 37 C for the appropriate time prior to testing. For agonist determination, cells were incubated with sample to induce response. […] The microplates were read following signal generation with a PerkinElmer Envision™ instrument for chemiluminescent signal detection.
The compound activity was analyzed using a CBIS data analysis suite (ChemInnovation, CA). For agonist mode assays, percentage activity was calculated using the following formula:
% Activity=100%×(mean RLU of test sample−mean RLU of vehicle control)/(mean MAX control ligand−mean RLU of vehicle control).

CLR/RAMP1 receptor [2] = biological target: T2, CLR/RAMP1 receptor (Homo sapiens, UniProt O60894+Q16602); test: CLR/RAMP1 cAMP assay, antagonist mode (CGRP-stimulated); conditions: for CLR/RAMP1 Max Activity % of positive control (antagonist): antagonist mode; for receptor selectivity of antagonists, in words: CLR/RAMP1 versus CLR/RAMP2
Experimental: A cell line carrying the recombinant CLR/RAMP1, CLR/RAMP2, or a CLR/RAMP3 receptor was employed in the assay. […] The CLR/RAMP1 CAMP, CLR/RAMP2 arrestin, and CLR/RAMP3 CAMP assays (DiscoveRx, Fremont, Calif.) were used.
For the analysis of antagonistic activity, synthetic analogs were pre-incubated with the cells before adding the reference ligand at its EC80. […] For the determination of antagonistic activity, cells were pre-incubated with sample followed by agonist challenge at the EC80 concentration. […] After appropriate compound incubation, assay signal was generated through incubation with 20 μL cAMP XS+ED/CL lysis cocktail for one hour followed by incubation with 20 μL cAMP XS+EA reagent for three hours at room temperature. Microplates were read following signal generation with a PerkinElmer Envision™ instrument for chemiluminescent signal detection.
For the antagonistic activity assay, percentage inhibition is calculated using the following formula: % Inhibition=100%×(1−(mean RLU of test sample−mean RLU of vehicle control)/(mean RLU of EC80 control−mean RLU of vehicle control)).

CLR/RAMP1 receptor [3] = biological target: T2, CLR/RAMP1 receptor; test: CLR/RAMP1 cAMP receptor-activation assay (agonist mode); conditions: for CLR/RAMP1 Max Activity % of positive control: agonist mode, positive control β-CGRP;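 on all read-outs here: Dose–response over 10 threefold dilutions from 1.0 µM, run in duplicate, luminescent cAMP detection (RLU), activity scaled between vehicle control (0%) and maximal control (100%)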
Experimental: as §1, §2
(§3) For the analysis of Gs-coupled CAMP production, cAMP Hunter cell lines were expanded from freezer stocks, and cells were seeded in a total volume of 20 μL into white walled, 384-well microplates and incubated at 37 C for the appropriate time prior to testing. The CAMP modulation was determined using the DiscoverX HitHunter CAMP XS+ assay. For agonistic activity determination, cells were incubated with sample to induce response. Media was aspirated from cells and replaced with 15 μL 2:1 HBSS/10 mM Hepes: CAMP XS+Ab reagent. […] For Gs-coupled agonistic assays, percentage activity is calculated using the following formula: % Activity=100%×(mean RLU of test sample−mean RLU of vehicle control)/(mean RLU of MAX control−mean RLU of vehicle control).

CLR/RAMP2 receptor [4] = biological target: T1, CLR/RAMP2 receptor; test: CLR/RAMP2 arrestin assay, antagonist mode (ADM-stimulated)
Experimental: A cell line carrying the recombinant CLR/RAMP1, CLR/RAMP2, or a CLR/RAMP3 receptor was employed in the assay. Peptide agonist activities were tested, in duplicate, at 10 different concentrations, starting with 1.0 μM and serially diluted 3-fold, in DMSO. […] The CLR/RAMP1 CAMP, CLR/RAMP2 arrestin, and CLR/RAMP3 CAMP assays (DiscoveRx, Fremont, Calif.) were used.
For the analysis of antagonistic activity, synthetic analogs were pre-incubated with the cells before adding the reference ligand at its EC80. […] For antagonistic activity determination, cells were pre-incubated with antagonist followed by agonist challenge at the EC80 concentration. […] Then, 5 μL of 6× EC80 agonist in assay buffer was added to the cells and incubated at 37 C or room temperature for 90 or 180 minutes.
The microplates were read following signal generation with a PerkinElmer Envision™ instrument for chemiluminescent signal detection.
% Activity=100%×(mean RLU of test sample−mean RLU of vehicle control)/(mean MAX control ligand−mean RLU of vehicle control). For antagonistic activity assays, percentage inhibition was calculated using the following formula: % Inhibition=100%×(1−(mean RLU of test sample−mean RLU of vehicle control)/(mean RLU of EC80 control−mean RLU of vehicle control)).

CLR/RAMP3 receptor = CLR/RAMP3 receptor (Homo sapiens, UniProt O60896+Q16602); test: CLR/RAMP3 cAMP receptor-activation assay (agonist mode); conditions: for CLR/RAMP3 Max Activity % of positive control: agonist mode; for EC50: CHO-K1 cells stably expressing CLR/RAMP3, cAMP assay
Experimental: as §1, §2, §3

[5] = biological target: neurotensin receptor 1 (NTSR1) (Homo sapiens, UniProt P30989); test: NTSR1 calcium flux assay
Sequence of neurotensin receptor 1 (NTSR1) (P30989 whole entry): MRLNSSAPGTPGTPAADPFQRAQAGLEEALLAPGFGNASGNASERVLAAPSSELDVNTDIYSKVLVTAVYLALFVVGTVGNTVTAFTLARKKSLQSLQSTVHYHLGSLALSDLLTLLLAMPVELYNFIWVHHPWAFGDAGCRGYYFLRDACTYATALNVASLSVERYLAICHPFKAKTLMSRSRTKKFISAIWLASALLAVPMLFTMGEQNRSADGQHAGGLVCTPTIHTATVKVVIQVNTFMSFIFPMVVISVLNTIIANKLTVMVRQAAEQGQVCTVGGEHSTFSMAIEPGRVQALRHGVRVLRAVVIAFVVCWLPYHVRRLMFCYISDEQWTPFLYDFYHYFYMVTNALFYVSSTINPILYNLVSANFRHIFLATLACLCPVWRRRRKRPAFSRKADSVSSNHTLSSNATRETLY
Experimental: The agonistic activities toward SSTR2, NTSR1, and AGTRL1 were assayed with an SSTR2 arrestin assay, an NTSR1 calcium flux assay, and an AGTRL1 CAMP assay (Discoverx Inc.), respectively. The antagonistic activities toward BDKRB1 and AGTR1 were assayed with a BDKRB1 calcium flux assay and an AGTR1 calcium flux assay (Discoverx Inc.), respectively.
For the analysis of calcium flux, cell lines were expanded from freezer stocks and seeded in a total volume of 20 μL into black-walled, clear-bottom, Poly-D-lysine coated 384-well microplates and incubated at 37 C for the appropriate time prior to testing. […] Compound agonist activity was measured on a FLIPR Tetra (MDS), and calcium mobilization was monitored for 2 minutes and 10 μL 4× sample in HBSS/20 mM Hepes was added to the cells 5 seconds into the assay.
The compound activity was analyzed using a CBIS data analysis suite (ChemInnovation, CA), and percentage activity is calculated using the following formula: % Activity=100%×(mean RFU of test sample−mean RFU of vehicle control)/(mean MAX RFU control ligand−mean RFU of vehicle control). For antagonist assays, percentage inhibition is calculated using the following formula: % Inhibition=100%×(1−(mean RFU of test sample−mean RFU of vehicle control)/(mean RFU of EC80 control−mean RFU of vehicle control)).

T2 sequence (Q16602 23-461): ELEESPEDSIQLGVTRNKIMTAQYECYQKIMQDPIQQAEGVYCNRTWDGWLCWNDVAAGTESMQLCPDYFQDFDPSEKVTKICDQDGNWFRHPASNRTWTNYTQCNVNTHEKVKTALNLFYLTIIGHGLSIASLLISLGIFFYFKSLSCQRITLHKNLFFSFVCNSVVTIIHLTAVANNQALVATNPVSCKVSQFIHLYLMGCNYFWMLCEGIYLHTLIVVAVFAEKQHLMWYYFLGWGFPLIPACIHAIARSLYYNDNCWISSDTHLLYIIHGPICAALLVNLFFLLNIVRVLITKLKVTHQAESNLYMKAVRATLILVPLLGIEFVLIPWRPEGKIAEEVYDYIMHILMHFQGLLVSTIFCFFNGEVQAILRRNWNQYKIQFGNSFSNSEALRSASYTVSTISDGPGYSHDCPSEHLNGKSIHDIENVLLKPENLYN
T2 sequence (O60894 27-148): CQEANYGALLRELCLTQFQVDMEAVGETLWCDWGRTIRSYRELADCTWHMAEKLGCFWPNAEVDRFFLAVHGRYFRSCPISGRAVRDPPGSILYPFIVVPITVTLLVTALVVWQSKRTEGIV
Sequence of CLR/RAMP3 receptor (Q16602 23-461): as the sequence (Q16602 23-461) above
Sequence of CLR/RAMP3 receptor (O60896 24-148): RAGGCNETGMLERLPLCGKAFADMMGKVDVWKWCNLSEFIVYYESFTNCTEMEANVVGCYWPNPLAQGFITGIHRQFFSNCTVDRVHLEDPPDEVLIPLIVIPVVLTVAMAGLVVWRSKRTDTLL
T1 sequence (Q16602 23-461): as the sequence (Q16602 23-461) above
T1 sequence (O60895 43-175): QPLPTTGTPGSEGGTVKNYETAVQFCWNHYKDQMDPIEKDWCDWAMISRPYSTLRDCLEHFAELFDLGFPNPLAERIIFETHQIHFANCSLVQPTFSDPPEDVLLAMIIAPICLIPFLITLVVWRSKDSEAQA

Row | Substance | CLR/RAMP2 Max Activity % of positive control (CLR/RAMP2 receptor [1]) | CLR/RAMP1 Max Activity % of positive control (antagonist) (CLR/RAMP1 receptor [2]) | CLR/RAMP1 Max Activity % of positive control (CLR/RAMP1 receptor [3]) | CLR/RAMP2 Max Activity % of positive control (antagonist) (CLR/RAMP2 receptor [4]) | CLR/RAMP3 Max Activity % of positive control (CLR/RAMP3 receptor) | other results
1 | olcegepant [BIBN4096, reference compound] | 0 % of positive control | 105 % of positive control | 105 % of positive control | 0 % of positive control | – | –
2 | miniPEG-K(PAL)GCRFGTCTVQKLAHQIYQFTDKDKDNVAPRSKISPQGY-NH2 [SEQ ID NO: 69] | 147 % of positive control | – | 70 % of positive control | – | 127 % of positive control | –
3 | miniPEG-K(PAL)GCRFGTCTVQKLAHQIYQFTDKDSAPVDPSSPHSY-NH2 [SEQ ID NO: 48] | 77 % of positive control | – | 78 % of positive control | – | 141 % of positive control | EC50 (CLR/RAMP3 receptor): 0.07 nM; EC50 (CLR/RAMP2 receptor [1]): 0.2 nM; EC50 (CLR/RAMP1 receptor [3]; 1321N1 cells stably expressing CLR/RAMP1, cAMP assay): 0.3 nM
4 | PEG20,000-K[PAL]VQKLAHQIYQFTDKDSAPVDPSSPHSY-NH2 [SEQ ID NO: 190] | – | 104 % of positive control | – | 51 % of positive control | – | –
5 | KKPYIL [[Lys 8,9] Neurotensin, reference compound] | – | – | – | – | – | NTSR1 Max Activity [5]: 100 % of positive controls
6 | Ace-YNWNSFGLRF-miniPEG-K(PAL)VQKLAHQIYQFTDKDVAPRSKISPQGY-NH2 [SEQ ID NO: 148] | – | 100 % of positive control | – | 97 % of positive control | – | receptor selectivity of antagonists, in words (CLR/RAMP1 receptor [2]): pan-specific
7 | Pyr(glu)-LYENKPRRPYIL-miniPEG-K(Pal)VQKLSAPVDPSSPHSY-NH2 [SEQ ID NO: 224] | – | 99 % of positive control | – | 100 % of positive control | – | NTSR1 Max Activity [5]: 57 % of positive controls
8 | Pal-KVQNLSAPVDPSSPHSY-NH2 [SEQ ID NO: 141] | – | 43 % of positive control | – | 14 % of positive control | – | antagonistic activity toward CLR/RAMP1 and/or CLR/RAMP2, in words (CLR/RAMP1 receptor [2]): minimal antagonizing activities
9 | Ace-Y(D-Ala)GF(D-Leu)-miniPEG-K(Pal)VQKLSAPVDPSSPHSY-NH2 [SEQ ID NO: 145] | – | 99 % of positive control | – | 100 % of positive control | – | receptor selectivity of antagonists, in words (CLR/RAMP1 receptor [2]): CLR/RAMP1-selective
10 | Ace-NFVPTNVGPFAF-NH2 [SEQ ID NO: 144] | – | 98 % of positive control | – | 0 % of positive control | – | antagonistic activity toward CLR/RAMP1 and/or CLR/RAMP2, in words (CLR/RAMP1 receptor [2]): minimal antagonizing activities
11 | miniPEG-K(PAL)GCRFGTCTVQKLAHQIYQFTDKDKDNSAPVDPSSPHSY-NH2 [SEQ ID NO: 28] | 143 % of positive control | – | 54 % of positive control | – | 117 % of positive control | EC50 (CLR/RAMP3 receptor): 0.06 nM; EC50 (CLR/RAMP2 receptor [1]): 0.5 nM
12 | miniPEG-K(PAL)GCRFGTCTVQKLAHQIYQFTDKDVAPRSKISPQGY-NH2 [SEQ ID NO: 101] | 74 % of positive control | – | 56 % of positive control | – | 129 % of positive control | receptor selectivity of agonists, in words (CLR/RAMP2 receptor [1]; CLR/RAMP2 versus CLR/RAMP1): CLR/RAMP2-selective
